Measured values: PubChem BioAssay (NCI)
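Step 1: Grow cells in 96-well plates. Step 2: Expose to compound for 48 hours at 5 concentrations. Step 3: Interpolate endpoints linearly; if unreached, use highest concentration. At the TGI there is no net growth.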

What was measured:
Assay in all cases: NCI tumour cell line growth inhibition, 48 h
U251 CNS = test system: U251 CNS
HCT-15 colon = test system: HCT-15 colon
MALME-3M melanoma = test system: MALME-3M melanoma
RPMI-8226 leukemia = test system: RPMI-8226 leukemia
NCI-H522 lung = test system: NCI-H522 lung
IGROV1 ovarian = test system: IGROV1 ovarian
MDA-N = test system: MDA-N
SR leukemia = test system: SR leukemia
SF-295 CNS = test system: SF-295 CNS
KM12 colon = test system: KM12 colon
RXF 393 renal = test system: RXF 393 renal
SK-MEL-28 melanoma = test system: SK-MEL-28 melanoma
A498 renal = test system: A498 renal
UACC-257 melanoma = test system: UACC-257 melanoma
SNB-75 CNS = test system: SNB-75 CNS
BT-549 breast = test system: BT-549 breast

| Structure (SMILES) | TGI (U251 CNS) [µM] | TGI (HCT-15 colon) [µM] | TGI (MALME-3M melanoma) [µM] | TGI (RPMI-8226 leukemia) [µM] | TGI (NCI-H522 lung) [µM] | TGI (IGROV1 ovarian) [µM] | TGI (MDA-N) [µM] | TGI (SR leukemia) [µM] | TGI (SF-295 CNS) [µM] | TGI (KM12 colon) [µM] | TGI (RXF 393 renal) [µM] | TGI (SK-MEL-28 melanoma) [µM] | TGI (A498 renal) [µM] | TGI (UACC-257 melanoma) [µM] | TGI (SNB-75 CNS) [µM] | TGI (BT-549 breast) [µM] |
| --- | --- | --- | --- | --- | --- | --- | --- | --- | --- | --- | --- | --- | --- | --- | --- | --- |
| CCNc1cc2c3c(c1)CCN3CCC2 | > 10 | > 10 | > 10 | > 10 | > 10 | > 10 | > 10 | > 10 | > 10 | > 10 | > 10 | > 10 | > 10 | > 10 | > 10 |  |
| Cc1c([C@H](C)[C@@H]2NC[C@@H](C)C[C@H]2O)ccc2c1C[C@H]1[C@H]2CC=C2C[C@@H](O)CC[C@@]21C | 30.3 | 57 | 36.5 | 17.9 | 36.6 | 43.9 | 31 |  | 40.8 | 37.2 | 48.2 | 37.5 | 33.6 | 27.8 | 51.7 | 54.5 |
| CC(C)(C)OC(=O)c1ccc(NCC2=C(Br)C(=O)C=CC2=O)cc1 | > 66.6 | 32 | 30.6 | > 100 | 13 | > 66.9 | 48.1 | 79.7 | > 100 | > 100 | 37.5 | 41.2 |  | 61.3 | > 83.3 | 26.5 |
| COc1cc(Oc2nc3cc(F)c(F)cc3nc2-c2ccccc2)cc(OC)c1OC | > 100 | > 100 | 96.9 |  | > 100 | > 100 | > 100 | > 100 | > 100 | > 100 | > 100 | > 100 | > 100 | > 100 | 51.2 | > 100 |
| S=C1SC(=Nc2ccccc2)C(=Nc2ccccc2)N1c1ccc2ccccc2c1 | > 100 | > 100 | > 100 | > 100 | > 100 | > 100 | > 100 | > 100 | > 100 | > 100 | > 100 | > 100 | > 100 |  | > 100 | > 100 |
| NC(=S)NC/C=C/Cl |  | > 100 | > 100 | > 100 | > 100 | > 100 | > 100 | > 100 | > 100 | > 100 | > 100 |  |  | > 100 | > 100 | > 100 |
| COC(=O)Nc1nc2ccc(NC(=O)c3ccc(I)cc3)cc2[nH]1 | > 100 | > 100 | > 100 | > 100 | > 100 | > 100 | > 100 |  | > 100 | > 100 | > 100 | > 100 | > 100 | > 100 | > 100 | > 100 |
| NC(=O)CN1C=CCC(C(N)=O)=C1 | > 100 | > 100 | > 100 | > 100 | > 100 | > 100 | > 100 |  | > 100 | > 100 | > 100 |  | > 100 | > 100 | > 100 | > 100 |
| O=C1NC(Cc2ccc(O)cc2)C(=O)NC1Cc1ccc(O)cc1 (stereo not drawn) | > 100 | > 100 | > 100 | > 100 | > 100 | > 100 | > 100 | > 100 | > 100 | > 100 | > 100 | > 100 | > 100 | > 100 | > 100 |  |
| C=C1CC(C)(c2cccc(Nc3nc4ccccc4c4occc34)c2)OC1=O (stereo not drawn) | > 100 | 17.4 | 39.1 | 4.62 |  |  | 18.3 |  | 34.9 | 43.8 | 6.02 | 26.8 | 32.1 | 3.47 | 18.3 | 17.4 |
| N#Cc1c(N)nc2c3c1NC(=O)C(C(N)=O)C3c1ccccc1O2 (stereo not drawn) | > 100 | > 100 | > 100 | > 100 | 70.6 | 79.8 | > 100 | > 100 | > 100 | > 100 | > 100 | > 100 | > 100 | > 100 | > 100 |  |
| Cc1nc(Nc2ccccc2Cl)sc1C(=O)CC(=O)C(N)=O | > 100 | > 100 |  | > 100 | 6.79 | > 100 | > 100 |  | > 100 | > 100 | > 100 |  | 66.7 | > 100 | 92.2 | > 100 |
| CC(CNC(N)=O)NC(N)=O (stereo not drawn) | > 100 | > 100 | > 100 | > 100 | > 100 | > 100 | > 100 |  | > 100 | > 100 | > 100 | > 100 | > 100 | > 100 | > 100 | > 100 |
| CCSC1=CC2(O)N(CCc3ccc(OC)c(OC)c3)C(=O)CC2(C(=O)OC)CC1=O (stereo not drawn) | 51.7 | 72.7 |  | 91.3 |  | 33.6 | > 100 | 58.6 | > 100 | 33.4 |  | > 100 | > 100 | 34.6 |  | 32.8 |
| Oc1ccc(Oc2cc3c(cc2Oc2ccc(O)cc2)-c2nc-3nc3[nH]c(nc4nc(nc5[nH]c(n2)c2cc(Oc6ccc(O)cc6)c(Oc6ccc(O)cc6)cc52)-c2cc(Oc5ccc(O)cc5)c(Oc5ccc(O)cc5)cc2-4)c2cc(Oc4ccc(O)cc4)c(Oc4ccc(O)cc4)cc32)cc1 | > 100 | > 100 | 47 |  | > 100 | > 100 | > 100 | > 100 | 95.6 | > 100 |  | > 100 |  | > 100 | > 100 | > 100 |
| O=[N+]([O-])/C(C(Cl)=C(Cl)Cl)=C(/Nc1cccc2cccnc12)n1nnc2ccccc21 |  | 28.1 | 19.7 | 83.6 |  |  | 27.2 |  | 42.2 | 29.5 |  | 33.5 |  | > 100 | 67.8 | 35.8 |
